Source: patent publication US20080090805A1, “CB-1 MODULATING COMPOUNDS AND THEIR USE” (ACADIA PHARMACEUTICALS INC., priority 2005, published 2008)

Biological target: CB1 (mutant) (Homo sapiens, UniProt P21554)
Test: R-SAT functional receptor assay, CB1 (mutant, truncated after amino acid 417)
Type: cell-based
Settings: Appendix A, R-SAT CB1; for IC50: receptor form (mutant or wild-type) not stated, read-out: pIC50 (converted); for Emax: receptor form not stated, relative to SR141716 (100%), read-out: % Inhibition

CB1 (mutant), sequence (P21554 1-417, change not shown): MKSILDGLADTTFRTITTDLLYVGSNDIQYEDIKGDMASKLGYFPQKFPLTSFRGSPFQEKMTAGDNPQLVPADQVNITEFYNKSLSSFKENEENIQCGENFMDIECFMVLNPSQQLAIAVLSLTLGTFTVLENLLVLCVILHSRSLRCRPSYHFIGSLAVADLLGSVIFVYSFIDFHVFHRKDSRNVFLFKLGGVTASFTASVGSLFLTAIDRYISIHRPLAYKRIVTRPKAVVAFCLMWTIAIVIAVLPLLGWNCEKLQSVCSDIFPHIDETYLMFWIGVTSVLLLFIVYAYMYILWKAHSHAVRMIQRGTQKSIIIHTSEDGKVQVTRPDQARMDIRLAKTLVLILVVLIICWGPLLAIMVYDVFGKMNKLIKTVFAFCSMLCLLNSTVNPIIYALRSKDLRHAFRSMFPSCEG

Row | SMILES | IC50 [nM] | Emax [%]
1 | O=C(NCCc1ccccn1)c1ccc2c(c1)N=C(c1cccc(F)c1)c1ccccc1S2 | 50.1 | 91
2 | CCONC(=O)c1ccc2c(c1)N=C(c1ccc(Cl)s1)c1ccccc1S2 | 50.1 | 97
3 | Cc1ccc(N2CCN(C(=O)c3ccc4c(c3)N=C(CC(C)C)c3ccccc3S4)CC2)c(C)c1 | 251 | 105
4 | O=C(NNC(=O)c1ccc2c(c1)N=C(c1ccc(Br)cc1)c1ccccc1S2)c1ccccc1 | 251 | 88
5 | CCCC1=NC2=C(CCC(C(=O)N3CCN(c4ccccc4F)CC3)=C2)Sc2ccccc21 | 251 | 97
6 | Cc1cc(Cl)ccc1C1=Nc2cc(C(=O)NC3CCCCC3)ccc2Sc2ccccc21 | 251 | 83
7 | CCCC1=Nc2cc(C(=O)NCCc3ccc(SC)cc3)ccc2Sc2ccccc21 | 251 | 103
8 | CC(C)NC(=O)c1ccc2c(c1)N=C(c1ccccc1F)c1ccccc1S2 | 251 | 82
9 | CCCC1=Nc2cc(C(=O)NC3CCN(C(=O)OCC)CC3)ccc2Sc2ccccc21 | 251 | 77
10 | COc1ccc(C2=Nc3cc(C(=O)NC4CCCCNC4=O)ccc3Sc3ccccc32)cc1 (stereo not shown) | 251 | 62
11 | CCCC1=Nc2cc(C(=O)N3CCN(c4cccc(C(F)(F)F)c4)CC3)ccc2Sc2ccccc21 | 251 | 91
12 | O=C(NC1CCCCC1)c1ccc2c(c1)N=C(c1ccccc1Cl)c1ccccc1S2 | 251 | 67
13 | CCCCN(C)C(=O)c1ccc2c(c1)N=C(c1ccccc1F)c1ccccc1S2 | 251 | 77
14 | O=C(NCCc1ccncc1)c1ccc2c(c1)N=C(c1ccccn1)c1ccccc1S2 | 251 | 51
15 | CCCC1=Nc2cc(C(=O)NCCCN3CCOCC3)ccc2Sc2ccccc21 | 316 | 98
16 | COCCNC(=O)c1ccc2c(c1)N=C(c1ccc(Cl)cc1Cl)c1ccccc1S2 | 316 | 69
17 | CCCC1=Nc2cc(C(=O)NCCCN3CCC(c4cc(Cl)ccc4C)CC3)ccc2Sc2ccccc21 | 316 | 117
18 | CCCC1=Nc2cc(C(=O)NCCCN3CCN(c4cc(C)ccc4C)CC3)ccc2Sc2ccccc21 | 316 | 126
19 | O=C(NCc1ccccn1)c1ccc2c(c1)N=C(c1ccccn1)c1ccccc1S2 | 316 | 81
20 | CCCCC1=Nc2cc(C(=O)N3CCN(c4ccc(C)cc4C)CC3)ccc2Sc2ccccc21 | 316 | 104

Row | SMILES | IC50 [nM] | Emax [%]
21 | O=C(NCc1cccnc1)c1ccc2c(c1)N=C(c1ccccn1)c1ccccc1S2 | 316 | 67
22 | CCCC1=Nc2cc(C(=O)NCc3ccccc3)ccc2Sc2ccccc21 | 20 | 111
23 | CN(NC(=O)c1ccc2c(c1)N=C(c1ccccc1F)c1ccccc1S2)C1CCCCC1 | 316 | 74
24 | COc1ccccc1C1=Nc2cc(C(=O)NC3CCCCC3)ccc2Sc2ccccc21 | 316 | 72
25 | CCCCC1=Nc2cc(C(=O)NN3CCCCC3)ccc2Sc2ccccc21 | 316 | 82
26 | O=C(NCCc1ccncc1)c1ccc2c(c1)N=C(c1ccc(Cl)cc1Cl)c1ccccc1S2 | 316 | 72
27 | O=C(NCCc1ccncc1)c1ccc2c(c1)N=C(c1ccccc1Cl)c1ccccc1S2 | 316 | 82
28 | Cc1cccnc1C1=Nc2cc(C(=O)NCc3ccco3)ccc2Sc2ccccc21 | 316 | 83
29 | O=C(NCCc1cccnc1)c1ccc2c(c1)N=C(c1ccccn1)c1ccccc1S2 | 316 | 77
30 | NS(=O)(=O)c1ccc(CNC(=O)C2C=C3N=C(N4CCCCC4)c4ccccc4SC3=CC2)cc1 (stereo not shown) | 398 | 78
31 | O=C(NC1CCCC1)c1ccc2c(c1)N=C(c1ccccc1F)c1ccccc1S2 | 398 | 79
32 | CONC(=O)c1ccc2c(c1)N=C(c1cccc(Cl)c1)c1ccccc1S2 | 398 | 89
33 | CCCC1=Nc2cc(C(=O)NCC3C=CC4=C(C3)OCO4)ccc2Sc2ccccc21 (stereo not shown) | 398 | 91
34 | CCONC(=O)c1ccc2c(c1)N=C(c1ccccc1F)c1ccccc1S2 | 398 | 73
35 | CCCC1=Nc2cc(C(=O)NCCCN3CCN(c4ccccc4F)CC3)ccc2Sc2ccccc21 | 398 | 120
36 | CONC(=O)c1ccc2c(c1)N=C(c1ccc(Cl)s1)c1ccccc1S2 | 398 | 66
37 | COCCNC(=O)c1ccc2c(c1)N=C(c1ccccn1)c1ccccc1S2 | 398 | 71
38 | O=C(NNC(=O)c1ccc2c(c1)N=C(c1ccc(Cl)cc1)c1ccccc1S2)c1ccccc1 | 398 | 71
39 | CCOC(=O)N1CCC(NC(=O)c2ccc3c(c2)N=C(CC(C)C)c2ccccc2S3)CC1 | 398 | 89
40 | CCCCN(CCCC)CCNC(=O)c1ccc2c(c1)N=C(CCC)c1ccccc1S2 | 398 | 109

Row | SMILES | IC50 [nM] | Emax [%]
41 | O=C(NCc1ccncc1)c1ccc2c(c1)N=C(N1CCCCC1)c1ccccc1S2 | 501 | 81
42 | CCCCCC1=Nc2cc(C(=O)NC3CCN(C(=O)OCC)CC3)ccc2Sc2ccccc21 | 501 | 87
43 | O=C(NN1CCCCC1)c1ccc2c(c1)NC(C1CCCCC1)c1ccccc1S2 (stereo not shown) | 501 | 43
44 | CONC(=O)c1ccc2c(c1)N=C(c1sccc1C)c1ccccc1S2 | 501 | 45
45 | CCCCC1=Nc2cc(C(=O)NC3CCN(C(=O)OCC)CC3)ccc2Sc2ccccc21 | 501 | 96
46 | CCCNC(=O)c1ccc2c(c1)N=C(c1ncccc1C)c1ccccc1S2 | 501 | 63
47 | Cc1cccnc1C1=Nc2cc(C(=O)NC3CCCCC3)ccc2Sc2ccccc21 | 501 | 61
48 | CONC(=O)c1ccc2c(c1)N=C(c1cccc(Br)c1)c1ccccc1S2 | 501 | 73
49 | CCCCNC(=O)c1ccc2c(c1)N=C(CCC)c1ccccc1S2 | 25.1 | 111
50 | CCCC1=Nc2cc(C(=O)NC)ccc2Sc2ccccc21 | 501 | 119
51 | CONC(=O)c1ccc2c(c1)N=C(c1ccc(F)cc1)c1ccccc1S2 | 501 | 65
52 | CCOC(=O)c1ccc(C2=Nc3cc(C(=O)NCc4ccncc4)ccc3Sc3ccccc32)cc1 | 501 | 69
53 | CON(C)C(=O)c1ccc2c(c1)N=C(c1ccc(Cl)s1)c1ccccc1S2 | 501 | 55
54 | O=C(NN1CCCCC1)c1ccc2c(c1)N=C(c1ccccc1Cl)c1ccccc1S2 | 501 | 45
55 | O=C(NCc1cccnc1)c1ccc2c(c1)N=C(NCc1ccc(Cl)cc1)c1ccccc1S2 | 501 | 76
56 | O=C(NN1CCOCC1)c1ccc2c(c1)N=C(c1ccc(F)cc1)c1ccccc1S2 | 631 | 77
57 | CCCC1=Nc2cc(C(=O)NCCCN3CC(C)CC(C)C3)ccc2Sc2ccccc21 (stereo not shown) | 631 | 136
58 | CC(C)NC(=O)c1ccc2c(c1)N=C(c1ccccc1Cl)c1ccccc1S2 | 631 | 46
59 | CCCC1=Nc2cc(C(=O)NCCN3CCN(c4cccc(Cl)c4)CC3)ccc2Sc2ccccc21 | – | 76
60 | CCCC1=Nc2cc(C(=O)NCCCN(C)C3CCCCC3)ccc2Sc2ccccc21 | – | 120
